Laboratory results as given in US8609666B2, “2-morpholino-pyrido[3,2-D]pyrimidines” (Merck Serono SA, priority 2009, dated 2013).

These compounds were tested on Human recombinant GST-PI3K (assay: PI3K induced-lipid phosphorylation scintillation proximity assay (neomycin-coated SPA beads)). Conditions: amount necessary to achieve 50% inhibition of PI3K; 120 min at room temperature.
Assay type: biochemical
Description: The efficacy of compounds of the invention in inhibiting the PI3K induced-lipid phosphorylation may be tested in the following binding assay. The assay combines the scintillation proximity assay technology (SPA, Amersham) with the capacity of neomycin (a polycationic antibiotic) to bind phospholipids with high affinity and specificity. The Scintillation Proximity Assay is based on the properties of weakly emitting isotopes (such as ^3H, ^125I, ^33P). Coating SPA beads with neomycin allows the detection of phosphorylated lipid substrates after incubation with recombinant PI3K and radioactive ATP in the same well, by capturing the radioactive phospholipids to the SPA beads through their specific binding to neomycin. To a 96 wells MTP containing 10 μl of the test compound of Formula (I) (solubilized in 10% DMSO; to yield a concentration of 100, 25, 5.0, 1.25, 0.312, 0.078, 0.0195, 0.00488, 0.00122 and 0.0003 μM of the test compound), the following assay components are added: 1) 10 μL of lipid micelles 2) […] of Kinase buffer ([^33P]γATP162 μM/300 nCi, MgCl2 2.5 mM, DTT 2.5 mM, Na3VO4 25 μM in Hepes 40 mM, pH 7.4) and 3) 10 μL (100 ng) of Human recombinant GST-PI3K (in Hepes 40 mM, pH 7.4, ethylenglycol 4%). After incubation at room temperature for 120 minutes, with gentle agitation, the reaction is stopped by addition of 200 μL of a solution containing 250 μg of neomycin-coated PVT SPA beads, ATP 60 mM and EDTA 6.2 mM in PBS. The assay is further incubated at room temperature for 60 minutes with gentle agitation to allow binding of phospholipids to neomycin-SPA beads. After precipitation of the neomycin-coated PVT SPA beads for 5 minutes at 1500×g, radioactive PtdIns(3)P is quantified by scintillation counting in a Wallac MicroBeta™ plate counter. The values indicated in Table I below refer to the IC50 (μM) with respect to PI3K, i.e. the amount necessary to achieve 50% inhibition of said target. Said values show a considerable inhibitory potency of pyridopyrimidine compounds with regard to PI3K.

| IC50 [nM] | Compound |
| --- | --- |
| 255 | COCCOc1cc(C(=O)O)nc2c(-c3cccc(O)c3)nc(N3CCOCC3)nc12 [Example 11, 4-(3-Hydroxy-phenyl)-8-(2-methoxy-ethoxy)-2-morpholin-4-yl-pyrido[3,2-d]pyrimidine-6-carboxylic acid] |
| 26 | CS(=O)(=O)c1cc(C(=O)O)nc2c(-c3cccc(F)c3O)nc(N3CCOCC3)nc12 [Example 39] |
| 139 | CS(=O)(=O)c1cc(C(=O)O)nc2c(-c3cc(F)ccc3O)nc(N3CCOCC3)nc12 [Example 55, 4-(5-Fluoro-2-hydroxyphenyl)-8-(methylsulfonyl)-2-morpholin-4-ylpyrido[3,2-d]pyrimidine-6-carboxylic acid] |
| 64 | O=C(O)c1cc(NCCO)c2nc(N3CCOCC3)nc(-c3cc(O)cc(F)c3)c2n1 [Example 16, 4-(3-Fluoro-5-hydroxy-phenyl)-8-(2-hydroxy-ethylamino)-2-morpholin-4-yl-pyrido[3,2-d]pyrimidine-6-carboxylic acid] |
| 144 | CNc1cc(C(=O)O)nc2c(-c3cccc(O)c3)nc(N3CCOCC3)nc12 [Example 40, 4-(3-Hydroxyphenyl)-8-(methylamino)-2-morpholin-4-ylpyrido[3,2-d]pyrimidine-6-carboxylic acid] |
| 564 | CN(C)CCN(C)c1cc(C(=O)O)nc2c(-c3cc(F)ccc3O)nc(N3CCOCC3)nc12 [Example 32, 8-[[2-(Dimethylamino)ethyl](methyl)amino]-4-(5-fluoro-2-hydroxyphenyl)-2-morpholin-4-ylpyrido[3,2-d]pyrimidine-6-carboxylic acid] |
| 220 | CN(CCO)c1cc(C(=O)O)nc2c(-c3ccc(F)cc3O)nc(N3CCOCC3)nc12 [Example 59, 4-(4-Fluoro-2-hydroxyphenyl)-8-[(2-hydroxyethyl)(methyl)amino]-2-morpholin-4-ylpyrido[3,2-d]pyrimidine-6-carboxylic acid] |
| 15 | CS(=O)(=O)c1cc(C(=O)O)nc2c(-c3cc(O)cc(F)c3)nc(N3CCOCC3)nc12 [Example 56, 4-(3-Fluoro-5-hydroxyphenyl)-8-(methylsulfonyl)-2-morpholin-4-ylpyrido[3,2-d]pyrimidine-6-carboxylic acid] |
| 63 | O=C(O)c1ccc2nc(N3CCOCC3)nc(-c3cccc(O)c3)c2n1 [Example 41, 4-(3-Hydroxyphenyl)-2-morpholin-4-ylpyrido[3,2-d]pyrimidine-6-carboxylic acid] |
| 128 | COCCNc1cc(C(=O)O)nc2c(-c3cccc4[nH]ccc34)nc(N3CCOCC3)nc12 [Example 19, 4-(1H-Indol-4-yl)-8-(2-methoxy-ethylamino)-2-morpholin-4-yl-pyrido[3,2-d]pyrimidine-6-carboxylic acid] |
| 62 | COCCN(C)c1cc(C(=O)O)nc2c(-c3ccc(F)cc3O)nc(N3CCOCC3)nc12 [Example 51, 4-(4-Fluoro-2-hydroxyphenyl)-8-[(2-methoxyethyl)(methyl)amino]-2-morpholin-4-ylpyrido[3,2-d]pyrimidine-6-carboxylic acid] |
| 678 | O=C(O)c1cc(Cl)c2nc(N3CCOCC3)nc(-c3ccccc3)c2n1 [Example 64, 8-Chloro-2-morpholin-4-yl-4-phenylpyrido[3,2-d]pyrimidine-6-carboxylic acid] |
| 9 | COCCN(C)c1cc(C(=O)O)nc2c(-c3cccc(F)c3O)nc(N3CCOCC3)nc12 [Example 33, 4-(3-Fluoro-2-hydroxyphenyl)-8-[(2-methoxyethyl)(methyl)amino]-2-morpholin-4-ylpyrido[3,2-d]pyrimidine-6-carboxylic acid] |
| 459 | CN(C)CCN(C)c1cc(C(=O)O)nc2c(-c3ccccc3O)nc(N3CCOCC3)nc12 [Example 43, 8-[[2-(Dimethylamino)ethyl](methyl)amino]-4-(2-hydroxyphenyl)-2-morpholin-4-ylpyrido[3,2-d]pyrimidine-6-carboxylic acid] |
| 1830 | COCCNc1cc(C(=O)O)nc2c(-c3cccc(COC)c3)nc(N3CCOCC3)nc12 [Example 26, 8-(2-Methoxy-ethylamino)-4-(3-methoxymethyl-phenyl)-2-morpholin-4-yl-pyrido[3,2-d]pyrimidine-6-carboxylic acid] |
| 23 | CN(C)c1cc(C(=O)O)nc2c(-c3ccccc3O)nc(N3CCOCC3)nc12 [Example 42, 8-(Dimethylamino)-4-(2-hydroxyphenyl)-2-morpholin-4-ylpyrido[3,2-d]pyrimidine-6-carboxylic acid] |

| IC50 [nM] | Compound |
| --- | --- |
| 48 | CNc1cc(C(=O)O)nc2c(-c3cccc(F)c3O)nc(N3CCOCC3)nc12 [Example 35, 4-(3-Fluoro-2-hydroxyphenyl)-8-(methylamino)-2-morpholin-4-ylpyrido[3,2-d]pyrimidine-6-carboxylic acid] |
| 1850 | COCc1cccc(-c2nc(N3CCOCC3)nc3c(N(C)CCO)cc(C(=O)O)nc23)c1 [Example 27, 8-[(2-Hydroxy-ethyl)-methyl-amino]-4-(3-methoxymethyl-phenyl)-2-morpholin-4-yl-pyrido[3,2-d]pyrimidine-6-carboxylic acid] |
| 329 | CN(C)c1cc(C(=O)O)nc2c(-c3ccc(F)c(CO)c3)nc(N3CCOCC3)nc12 [Example 49, 8-(Dimethylamino)-4-[4-fluoro-3-(hydroxymethyl)phenyl]-2-morpholin-4-ylpyrido[3,2-d]pyrimidine-6-carboxylic acid] |
| 27 | O=C(O)c1cc(NCCO)c2nc(N3CCOCC3)nc(-c3cccc(CO)c3)c2n1 [Example 48, 8-[(2-Hydroxyethyl)amino]-4-[3-(hydroxymethyl)phenyl]-2-morpholin-4-ylpyrido[3,2-d]pyrimidine-6-carboxylic acid] |
| 132 | CN(C)c1cc(C(=O)O)nc2c(-c3cccc4[nH]ccc34)nc(N3CCOCC3)nc12 [Example 17, 8-Dimethylamino-4-(1H-indol-4-yl)-2-morpholin-4-yl-pyrido[3,2-d]pyrimidine-6-carboxylic acid] |
| 1290 | COCCN(C)c1cc(C(=O)O)nc2c(-c3cc(F)cc(F)c3)nc(N3CCOCC3)nc12 [Example 65, 4-(3,5-Difluorophenyl)-8-[(2-methoxyethyl)(methyl)amino]-2-morpholin-4-ylpyrido[3,2-d]pyrimidine-6-carboxylic acid] |
| 18 | COCCNc1cc(C(=O)O)nc2c(-c3cccc(F)c3O)nc(N3CCOCC3)nc12 [Example 36, 4-(3-Fluoro-2-hydroxyphenyl)-8-[(2-methoxyethyl)amino]-2-morpholin-4-ylpyrido[3,2-d]pyrimidine-6-carboxylic acid] |
| 2490 | COCc1cccc(-c2nc(N3CCOCC3)nc3c(NCCO)cc(C(=O)O)nc23)c1 [Example 28, 8-(2-Hydroxy-ethylamino)-4-(3-methoxymethyl-phenyl)-2-morpholin-4-yl-pyrido[3,2-d]pyrimidine-6-carboxylic acid] |
| 30 | CS(=O)(=O)N1CCN(c2cc(C(=O)O)nc3c(-c4ccccc4)nc(N4CCOCC4)nc23)CC1 [Example 67, 8-[4-(Methylsulfonyl)piperazin-1-yl]-2-morpholin-4-yl-4-phenylpyrido[3,2-d]pyrimidine-6-carboxylic acid] |
| 108 | O=C(O)c1cc(Cl)c2nc(N3CCOCC3)nc(-c3cccc(O)c3)c2n1 [Example 9, 8-Chloro-4-(3-hydroxyphenyl)-2-morpholin-4-ylpyrido[3,2-d]pyrimidine-6-carboxylic acid] |
| 304 | CNc1cc(C(=O)O)nc2c(-c3cc(F)ccc3O)nc(N3CCOCC3)nc12 [Example 30, 4-(5-Fluoro-2-hydroxyphenyl)-8-(methylamino)-2-morpholin-4-ylpyrido[3,2-d]pyrimidine-6-carboxylic acid] |
| 43 | O=C(O)c1cc(NCCO)c2nc(N3CCOCC3)nc(-c3cccc(F)c3O)c2n1 [Example 38, 4-(3-Fluoro-2-hydroxyphenyl)-8-[(2-hydroxyethyl)amino]-2-morpholin-4-ylpyrido[3,2-d]pyrimidine-6-carboxylic acid] |
| 1080 | COc1cccc(-c2nc(N3CCOCC3)nc3c(Cl)cc(C(=O)O)nc23)c1 [Example 1, 8-Chloro-4-(3-methoxyphenyl)-2-morpholin-4-ylpyrido[3,2-d]pyrimidine-6-carboxylic acid] |
| 412 | CNc1cc(C(=O)O)nc2c(-c3ccc(F)cc3O)nc(N3CCOCC3)nc12 [Example 53, 4-(4-Fluoro-2-hydroxyphenyl)-8-(methylamino)-2-morpholin-4-ylpyrido[3,2-d]pyrimidine-6-carboxylic acid] |
| 15 | CS(=O)(=O)N1CCN(c2cc(C(=O)O)nc3c(-c4cccc(O)c4)nc(N4CCOCC4)nc23)CC1 [Example 61, 4-(3-Hydroxyphenyl)-8-[4-(methylsulfonyl)piperazin-1-yl]-2-morpholin-4-ylpyrido[3,2-d]pyrimidine-6-carboxylic acid] |
